Drawing on patent US9371320B2, “Heterocyclic compound” (TAKEDA PHARMACEUTICAL COMPANY LIMITED, priority 2012, dated 2016), this text covers inhibition for 25 compounds.

Like-named read-outs stand apart in the source and are kept apart here.

The target of one assay is T1, Tyk2 (Homo sapiens, UniProt P29597).
T1 construct: purchased Invitrogen
Kind of assay: Tyk2 enzyme inhibition test (LANCE method). The following applies: for inhibition at 1 µM: test compound 1 μM, read-out: Inhibitory rate (%) Tyk2 1 μM; for inhibition at 10 µM: test compound 10 μM, read-out: Inhibitory rate (%) Tyk2 10 μM. It is filed as biochemical. Here is the method:
Tyk2 Enzyme Inhibition Test
(§1) Tyk2 enzyme inhibitory activity of test compounds was measured by LANCE method (PerkinElmer). First, a test compound diluted with assay buffer (50 mM HEPES (pH=7.5), 10 mM MgCl2, 1 mM EGTA, 2 mM DTT, 0.01% Tween20, 0.01% BSA) was added to 384-well plate at 2 μL each. Then, a Tyk2 (Invitrogen) solution and a fluorescence-labeled peptide substrate (ULight-JAK1, PerkinElmer) solution diluted with assay buffer at 375 ng/mL and 300 nM, respectively were added at 2 μL each. Then, enzyme reaction was started by adding 2 μL each of ATP solution prepared with assay buffer at 30 μM. After the reaction at room temperature for 1 hr, Detection Buffer (PerkinElmer) prepared to be 20 mM EDTA, 4 nM europium-labeled anti-phosphotyrosine antibody (PerkinElmer) was added at 6 μL each. After standing at room temperature for 1 hr, fluorescence intensity (excitation wavelength 340 nm, fluorescence wavelength 665 nm, delay time 100 microsecond) was measured by a plate reader, Envision (PerkinElmer). The inhibitory activity of each compound was calculated as relative value where fluorescence intensity of a well without enzyme is considered as 100% inhibition.
For orientation: TR-FRET usually uses a lanthanide donor and a delayed reading to cut background.

In a further assay the target is T2, JAK1 (Homo sapiens, UniProt P23458).
T2 construct: purchased Invitrogen
In words: JAK1 enzyme inhibition test (LANCE method). It is filed as biochemical. The settings on record: for inhibition at 1 µM: test compound 1 μM, read-out: Inhibitory rate (%) JAK1 1 μM; for inhibition at 10 µM: read-out: Inhibitory rate (%) JAK1 10 μM. As to the method:
JAK1 Enzyme Inhibition Test
as §1, with “JAK1 enzyme” for “Tyk2 enzyme”, “a JAK1” for “a Tyk2”, “at 187.5” for “at 375”, “at 150” for “at 30”

T2 sequence (P23458 whole entry): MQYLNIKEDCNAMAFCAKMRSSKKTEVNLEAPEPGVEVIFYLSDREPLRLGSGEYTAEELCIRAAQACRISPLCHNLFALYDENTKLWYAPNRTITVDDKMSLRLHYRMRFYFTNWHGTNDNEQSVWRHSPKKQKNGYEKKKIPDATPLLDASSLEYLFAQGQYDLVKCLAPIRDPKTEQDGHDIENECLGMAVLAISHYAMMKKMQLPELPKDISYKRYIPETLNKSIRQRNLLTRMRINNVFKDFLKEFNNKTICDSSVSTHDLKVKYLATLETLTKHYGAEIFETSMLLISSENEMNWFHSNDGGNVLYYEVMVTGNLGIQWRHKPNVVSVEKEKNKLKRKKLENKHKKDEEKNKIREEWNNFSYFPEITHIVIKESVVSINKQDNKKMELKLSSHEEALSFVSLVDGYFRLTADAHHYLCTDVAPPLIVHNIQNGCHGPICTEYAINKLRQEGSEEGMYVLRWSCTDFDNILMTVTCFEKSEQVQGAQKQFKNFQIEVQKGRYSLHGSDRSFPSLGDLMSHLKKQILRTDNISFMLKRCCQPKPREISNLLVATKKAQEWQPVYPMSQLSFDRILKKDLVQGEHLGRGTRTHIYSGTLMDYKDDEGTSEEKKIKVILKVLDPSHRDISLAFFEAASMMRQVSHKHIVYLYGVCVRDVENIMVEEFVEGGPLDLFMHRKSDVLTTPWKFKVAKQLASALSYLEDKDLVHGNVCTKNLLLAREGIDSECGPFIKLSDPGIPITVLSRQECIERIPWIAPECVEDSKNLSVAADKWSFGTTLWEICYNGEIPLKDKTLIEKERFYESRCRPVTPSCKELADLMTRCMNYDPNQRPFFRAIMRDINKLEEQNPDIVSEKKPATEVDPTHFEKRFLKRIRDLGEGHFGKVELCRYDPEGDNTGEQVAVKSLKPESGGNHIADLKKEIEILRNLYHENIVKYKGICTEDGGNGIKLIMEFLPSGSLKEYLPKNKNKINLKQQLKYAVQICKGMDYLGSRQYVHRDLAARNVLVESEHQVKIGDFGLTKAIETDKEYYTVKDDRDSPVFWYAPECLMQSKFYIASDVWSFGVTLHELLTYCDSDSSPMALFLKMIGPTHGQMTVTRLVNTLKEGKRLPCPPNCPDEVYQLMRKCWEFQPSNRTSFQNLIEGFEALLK
T1 sequence (P29597 whole entry): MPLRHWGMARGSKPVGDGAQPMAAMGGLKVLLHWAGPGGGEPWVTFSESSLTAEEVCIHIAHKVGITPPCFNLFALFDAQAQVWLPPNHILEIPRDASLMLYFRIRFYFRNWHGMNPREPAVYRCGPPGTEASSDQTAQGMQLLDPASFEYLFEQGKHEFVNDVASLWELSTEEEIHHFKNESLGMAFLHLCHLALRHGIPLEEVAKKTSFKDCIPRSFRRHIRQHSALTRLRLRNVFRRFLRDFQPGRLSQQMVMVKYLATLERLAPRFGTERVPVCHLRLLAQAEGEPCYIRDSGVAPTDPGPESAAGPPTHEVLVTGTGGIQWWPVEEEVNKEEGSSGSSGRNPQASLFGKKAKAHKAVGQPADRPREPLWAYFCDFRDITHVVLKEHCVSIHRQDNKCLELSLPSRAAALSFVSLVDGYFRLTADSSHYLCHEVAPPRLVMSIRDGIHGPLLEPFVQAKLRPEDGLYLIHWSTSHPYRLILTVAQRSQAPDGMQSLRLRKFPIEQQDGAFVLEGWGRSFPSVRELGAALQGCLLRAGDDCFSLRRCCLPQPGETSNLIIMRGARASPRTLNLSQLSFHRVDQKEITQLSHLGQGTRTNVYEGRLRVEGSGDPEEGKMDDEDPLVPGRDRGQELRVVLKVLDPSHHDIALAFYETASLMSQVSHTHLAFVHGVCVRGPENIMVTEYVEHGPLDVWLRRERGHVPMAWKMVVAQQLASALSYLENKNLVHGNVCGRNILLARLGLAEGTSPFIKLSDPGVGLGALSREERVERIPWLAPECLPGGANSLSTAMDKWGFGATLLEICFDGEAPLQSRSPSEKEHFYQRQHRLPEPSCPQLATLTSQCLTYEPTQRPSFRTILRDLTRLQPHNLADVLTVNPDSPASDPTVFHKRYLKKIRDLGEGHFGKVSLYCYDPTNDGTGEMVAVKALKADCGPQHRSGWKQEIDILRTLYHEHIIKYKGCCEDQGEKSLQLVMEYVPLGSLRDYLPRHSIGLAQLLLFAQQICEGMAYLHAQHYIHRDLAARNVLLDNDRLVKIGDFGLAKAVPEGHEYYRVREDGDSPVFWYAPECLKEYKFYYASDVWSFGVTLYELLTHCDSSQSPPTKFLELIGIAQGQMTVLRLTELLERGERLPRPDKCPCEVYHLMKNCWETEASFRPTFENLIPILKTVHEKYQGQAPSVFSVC

As for `N#Cc1c[nH]c(=O)c2c(-c3csc(C(N)=O)c3)cn(C3CCCC3)c12` [Example 33, 4-(7-cyano-1-cyclopentyl-4-oxo-4,5-dihydro-1H-pyrrolo[3,2-c]pyridin-3-yl)thiophene-2-carboxamide], the inhibition at 1 µM on Tyk2 and on JAK1 was 99% each time. For the compound `CC1(Cn2nc(-c3csc(C(N)=O)c3)c3c(=O)[nH]ccc32)COC1` [Example 141, 4-(1-((3-methyloxetan-3-yl)methyl)-4-oxo-4,5-dihydro-1H-pyrazolo[4,3-c]pyridin-3-yl)thiophene-2-carboxamide], the inhibition at 1 µM on Tyk2 was determined as 92%; on JAK1 it was 99%. Regarding `NC(=O)c1cc(-c2nn([C@H]3CC[C@@H](N)CC3)c3cc[nH]c(=O)c23)cs1` [Example 298, 4-(1-(cis-4-aminocyclohexyl)-4-oxo-4,5-dihydro-1H-pyrazolo[4,3-c]pyridin-3-yl)thiophene-2-carboxamide], the inhibition at 10 µM on Tyk2 is 58%; at JAK1 (test compound 10 μM) it was 81%.

Regarding `N#Cc1c[nH]c(=O)c2c(-c3cn[nH]c3)nn(-c3c(F)cccc3F)c12` [Example 228, 1-(2,6-difluorophenyl)-4-oxo-3-(1H-pyrazol-4-yl)-4,5-dihydro-1H-pyrazolo[4,3-c]pyridine-7-carbonitrile], the inhibition at 1 µM is 99% at Tyk2 and 85% at JAK1.

As to `N#Cc1c[nH]c(=O)c2c1c(C1CCCC1)nn2-c1csc(C(N)=O)c1` [Example 66, 4-(4-cyano-3-cyclopentyl-7-oxo-6,7-dihydro-1H-pyrazolo[3,4-c]pyridin-1-yl)thiophene-2-carboxamide], the inhibition at 1 µM at Tyk2 was 92%; on JAK1 it was 66%. In the same order, the values of `O=C1Cc2cc(-c3nn(C4CCCC4)c4cc[nH]c(=O)c34)ccc2N1` [Example 58, 1-cyclopentyl-3-(2-oxo-2,3-dihydro-1H-indol-5-yl)-1,5-dihydro-4H-pyrazolo[4,3-c]pyridin-4-one] are 91% and 86%.

Take `N#Cc1c[nH]c(=O)c2c(-c3ccc(N4CCOCC4)cc3)nn(-c3c(F)cccc3F)c12` [Example 229, 1-(2,6-difluorophenyl)-3-(4-(morpholin-4-yl)phenyl)-4-oxo-4,5-dihydro-1H-pyrazolo[4,3-c]pyridine-7-carbonitrile]: the inhibition at 1 µM at Tyk2 was 98%; at JAK1, 81%. As to `O=c1[nH]ccc2c1c(-c1ccccc1)cn2C1CCCC1` [Example 1, 1-cyclopentyl-3-phenyl-1,5-dihydro-4H-pyrrolo[3,2-c]pyridin-4-one], the figures for the inhibition at 1 µM on Tyk2 and at JAK1 were 51% and 40%, respectively. On the same counts, the results for `NS(=O)(=O)c1ccc(-c2cn(C3CCCC3)c3cc[nH]c(=O)c23)cc1` [Example 2, 4-(1-cyclopentyl-4-oxo-4,5-dihydro-1H-pyrrolo[3,2-c]pyridin-3-yl)benzenesulfonamide] are 97% and 99%. Consider `CC(=O)N1CCN(c2ccc(-c3nn(-c4c(F)cccc4F)c4cc[nH]c(=O)c34)cc2)CC1` [Example 279, 3-(4-(4-acetylpiperazin-1-yl)phenyl)-1-(2,6-difluorophenyl)-1,5-dihydro-4H-pyrazolo[4,3-c]pyridin-4-one], for which the inhibition at 1 µM on Tyk2 amounted to 99%; on JAK1, 96%. On the same counts, the results for `NC(=O)c1cc(F)cc(-c2nn(-c3c(F)cccc3F)c3c(Cl)c[nH]c(=O)c23)c1` [Example 270, 3-(7-chloro-1-(2,6-difluorophenyl)-4-oxo-4,5-dihydro-1H-pyrazolo[4,3-c]pyridin-3-yl)-5-fluorobenzamide] are 69% and 0%. As for `O=c1[nH]ccc2c1c(-c1ccc(F)cc1)nn2C1CCCC1` [Example 54, 1-cyclopentyl-3-(4-fluorophenyl)-1,5-dihydro-4H-pyrazolo[4,3-c]pyridin-4-one], the inhibition at 1 µM at Tyk2 and at JAK1 was 91% in each case. On to `NC(=O)c1cc(-c2nn(C3CCC4(CC3)OCCO4)c3cc[nH]c(=O)c23)cs1` [Example 148, 4-(1-(1,4-dioxaspiro[4.5]dec-8-yl)-4-oxo-4,5-dihydro-1H-pyrazolo[4,3-c]pyridin-3-yl)thiophene-2-carboxamide], for which the inhibition at 1 µM at Tyk2 stood at 98%; at JAK1, 99%. In the same order, the values of `COC(=O)c1cc(-n2nc(-c3ccccc3C)c3c(Br)c[nH]c(=O)c32)cs1` [Example 78, methyl 4-(4-bromo-3-(2-methylphenyl)-7-oxo-6,7-dihydro-1H-pyrazolo[3,4-c]pyridin-1-yl)thiophene-2-carboxylate] are 75% and 23%. Consider `CCC(CC)n1cc(-c2csc(C(=O)OC)c2)c2c(=O)[nH]ccc21` [Example 7, methyl 4-(4-oxo-1-(pentan-3-yl)-4,5-dihydro-1H-pyrrolo[3,2-c]pyridin-3-yl)thiophene-2-carboxylate], for which the inhibition at 1 µM at Tyk2 was 90%; on JAK1, 95%.

Consider `COc1cc(N)cc(F)c1-n1cc(-c2csc(C(N)=O)c2)c2c(=O)[nH]ccc21` [Example 302, 4-(1-(4-amino-2-fluoro-6-methoxyphenyl)-4-oxo-4,5-dihydro-1H-pyrrolo[3,2-c]pyridin-3-yl)thiophene-2-carboxamide], for which the results for the inhibition at 1 µM on Tyk2 and on JAK1 were 95% and 97%, respectively. On the same counts, the results for `Cn1cc(-c2nn(-c3c(F)cccc3F)c3cc[nH]c(=O)c23)ccc1=O` [Example 238, 1-(2,6-difluorophenyl)-3-(1-methyl-6-oxo-1,6-dihydropyridin-3-yl)-1,5-dihydro-4H-pyrazolo[4,3-c]pyridin-4-one] are 91% and 72%. In the same order, the values of `COCC(=O)N1CCN(c2ccc(-c3nn(-c4c(F)cccc4F)c4cc[nH]c(=O)c34)cc2)CC1` [Example 313, 1-(2,6-difluorophenyl)-3-(4-(4-(methoxyacetyl)piperazin-1-yl)phenyl)-1,5-dihydro-4H-pyrazolo[4,3-c]pyridin-4-one] are 100% and 95%. Turning to `CC(C)(C)n1nc(-c2csc(C(N)=O)c2)c2c(=O)[nH]ccc21` [Example 129, 4-(1-tert-butyl-4-oxo-4,5-dihydro-1H-pyrazolo[4,3-c]pyridin-3-yl)thiophene-2-carboxamide], the inhibition at 1 µM on Tyk2 is 97%; at JAK1, 98%. Regarding `O=C1CCCN1c1ccc(-c2nn(-c3c(F)cccc3F)c3c(Cl)c[nH]c(=O)c23)cc1` [Example 195, 7-chloro-1-(2,6-difluorophenyl)-3-(4-(2-oxopyrrolidin-1-yl)phenyl)-1,5-dihydro-4H-pyrazolo[4,3-c]pyridin-4-one], the inhibition at 1 µM on Tyk2 is 100%. For the same compound, the inhibition at 10 µM at JAK1 (test compound 10 μM (Ex. 182-220), beside Tyk2 1 μM) was found to be 79%. Regarding `CC(C)(C#N)c1ccc(-c2cn(C3CCCC3)c3c(C#N)c[nH]c(=O)c23)cc1` [Example 139, 3-(4-(2-cyanopropan-2-yl)phenyl)-1-cyclopentyl-4-oxo-4,5-dihydro-1H-pyrrolo[3,2-c]pyridine-7-carbonitrile], the inhibition at 1 µM at Tyk2 is 98%; on JAK1, 96%. On the same counts, the results for `O=c1[nH]ccc2c1c(-c1ccc(N3CCOCC3)nc1)nn2-c1c(F)cccc1F` [Example 309, 1-(2,6-difluorophenyl)-3-(6-(morpholin-4-yl)pyridin-3-yl)-1,5-dihydro-4H-pyrazolo[4,3-c]pyridin-4-one] are 99% and 93%.

Turning to `CC(=O)c1c[nH]c(=O)c2c(-c3csc(C(N)=O)c3)cn(C3CCCC3)c12` [Example 60, 4-(7-acetyl-1-cyclopentyl-4-oxo-4,5-dihydro-1H-pyrrolo[3,2-c]pyridin-3-yl)thiophene-2-carboxamide], the inhibition at 1 µM at Tyk2 was 89%; at JAK1, 50%. `Cc1ccc(-c2nn(C3CCCC3)c3cc[nH]c(=O)c23)cc1` [Example 50, 1-cyclopentyl-3-(4-methylphenyl)-1,5-dihydro-4H-pyrazolo[4,3-c]pyridin-4-one]: the inhibition at 1 µM at Tyk2 and on JAK1 was 92% each time. Regarding `O=c1[nH]ccc2c(-c3ccccc3)nn(-c3ccccc3)c12` [Example 10, 1,3-diphenyl-1,6-dihydro-7H-pyrazolo[3,4-c]pyridin-7-one], the inhibition at 10 µM on Tyk2 turned out to be 38%.
